According to patent publication US12144795B2, “Cannabidiol compositions having modified cannabinoid profiles” (priority 2018, dated 2024):

Experiments:
[1] = Cooling crystallization, XRPD before and after AAC; format: physicochemical
Experimental: Cooling crystallizations were performed by preparing clear solutions of CBD with a maximum concentration of approximately 60 mg/mL. The solutions were slowly cooled to 0° C. and kept at this temperature for 48 hours. Precipitated solids were collected, dried under ambient conditions, and analyzed by XRPD. If no solids had precipitated, the mother liquors were allowed to slowly evaporate and the remaining solids were analyzed by XRPD. All solids were exposed to accelerated aging conditions for 48 hours and analyzed again by XRPD. Cannabidiol precipitated upon cooling from pentane and heptane. […] When no XRPD record was generated, the field is defined as “Not Applicable” (N/A).

[2] = Crystallization by single solvent drop grinding, HT-XRPD before and after AAC; format: physicochemical
Experimental: For the grinding experiments, 40 mg cannabidiol was placed in a stainless steel container with 10 μL solvent and two steel beads. The vials were shaken for 1 hour at 30 Hz, after which the solids were collected for XRPD analysis. All of the samples were classified as Form A based on HT-XRPD analysis.

[3] = Vapor-diffusion-into-solution crystallization, solid form after evaporation; format: physicochemical
From the text: The open vials were placed in a larger container with anti-solvent and the vapors were allowed to diffuse into the cannabidiol solution for two weeks. The effect of the anti-solvent, however, was too low to induce any precipitation of cannabidiol and, therefore, it was decided to evaporate the mother liquors and analyze the remaining solids. Crystalline solid was only found after evaporation of the Toluene/2,2,4-Trimethylepentane solution.

[4] = Liquid diffusion crystallization, solid form by HT-XRPD; format: physicochemical
Experimental: A solution of cannabidiol of about 75 mg/mL was prepared and a layer of anti-solvent was carefully added to the vial. These experiments were performed with water as anti-solvent because of the larger difference in density between solvent and anti-solvent.

[5] = Stability studies of CBD prepared via Protocol 3 (crude, pure, 2x recrystallized; 5° C., 25° C./60% RH, 40° C./75% RH); format: physicochemical
[6] = Solubility of CBD in crude CBD mother liquor and heptane as a function of temperature (Crystal 16); settings: CBD concentration of ca. 296 mg/ml (3.5 L/kg), crude CBD mother liquor
From the text: To determine an appropriate seeding temperature of CBD, a Crystal 16 instrument was employed to measure the solubility in crude CBD mother liquor, a mixture of heptane and process impurities, and pure heptane.

[7] = solvent 1,4-Dioxane, anti-solvent 2,2,4-Trimethylpentane
[8] = solvent 1,4-Dioxane, anti-solvent Water
[9] = solvent 2-Methoxyethanol, anti-solvent 2,2,4-Trimethylpentane
[10] = solvent 4-methyl-2-pentanone, anti-solvent 2,2,4-Trimethylpentane
[11] = solvent Acetonitrile, anti-solvent Water
[12] = solvent Ethyl acetate, anti-solvent 2,2,4-Trimethylpentane
[13] = solvent Isobutanol, anti-solvent Water
[14] = solvent Isopropanol, anti-solvent Water
[15] = solvent Tetrahydrofuran, anti-solvent Water
[16] = solvent Diethanolamine, anti-solvent Water
[17] = solvent Diethylene glycol, anti-solvent Water
[18] = solvent Dimethyl sulfoxide, anti-solvent Water

C=C(C)[C@@H]1CCC(C)=C[C@H]1c1c(O)cc(CCCCC)cc1O [CBD, (1′R,2′R)-5′-methyl-4-pentyl-2′-(prop-1-en-2-yl)-1′,2′,3′,4′-tetrahydro-[1,1′-biphenyl]-2,6-diol]
Effect of accelerated aging conditions ([1]; AAC for 48 hours): no effect on the crystallinity | XRPD of solids precipitated upon cooling ([1]; from pentane and heptane, cooled to 0° C., 48 hours): identical to starting material Form A | Dissolved at initial T? ([1]; solvent 1,2-Dimethoxyethane): Yes | Solids after T profile ([1]; solvent 1,2-Dimethoxyethane): No | Dissolved at initial T? ([1]; solvent 1,4-Dioxane): Yes | Solids after T profile ([1]; solvent 1,4-Dioxane): No | Dissolved at initial T? ([1]; solvent 2,2,4-Trimethylpentane): No | Solids after T profile ([1]; solvent 2,2,4-Trimethylpentane): No | Dissolved at initial T? ([1]; solvent Acetone): Yes | Form by HT-XRPD Dry solids ([1]; solvent Acetone): Oily | Solids after T profile ([1]; solvent Acetone): No | Dissolved at initial T? ([1]; solvent Acetonitrile): Yes | Form by HT-XRPD Dry solids ([1]; solvent Acetonitrile): Oily | Solids after T profile ([1]; solvent Acetonitrile): No | Dissolved at initial T? ([1]; solvent Chloroform): Yes | Form by HT-XRPD Dry solids ([1]; solvent Chloroform): Oily | Solids after T profile ([1]; solvent Chloroform): No | Dissolved at initial T? ([1]; solvent Cyclohexane): Yes | Solids after T profile ([1]; solvent Cyclohexane): No | Dissolved at initial T? ([1]; solvent Diethylene glycol): Yes | Form by HT-XRPD Dry solids ([1]; solvent Diethylene glycol): Oily | Solids after T profile ([1]; solvent Diethylene glycol): No | Dissolved at initial T? ([1]; solvent Ethanol): Yes | Solids after T profile ([1]; solvent Ethanol): No | Dissolved at initial T? ([1]; solvent Ethyl acetate): Yes | Form by HT-XRPD Dry solids ([1]; solvent Ethyl acetate): Oily | Solids after T profile ([1]; solvent Ethyl acetate): No | Dissolved at initial T? ([1]; solvent Heptane): Yes | Form by HT-XRPD Dry solids ([1]; solvent Heptane): Oily | Solids after T profile ([1]; solvent Heptane): No | Dissolved at initial T? ([1]; solvent Hexane): No | Solids after T profile ([1]; solvent Hexane): Yes | Dissolved at initial T? ([1]; solvent Pentane): No | Solids after T profile ([1]; solvent Pentane): Yes | Dissolved at initial T? ([1]; solvent Tetrahydrofuran): Yes | Form by HT-XRPD Dry solids ([1]; solvent Tetrahydrofuran): Oily | Solids after T profile ([1]; solvent Tetrahydrofuran): No | Dissolved at initial T? ([1]; solvent Water): No | Form by HT-XRPD Dry solids ([1]; solvent Water): Low yield | Solids after T profile ([1]; solvent Water): No | Effect of accelerated aging conditions ([2]; AAC for two days): did not lead to any physical changes | Form by HT-XRPD analysis ([2]; ground 1 hour at 30 Hz with 10 μL solvent, all samples): Form A | Effect of accelerated aging conditions [3]: no effect on the physical appearance | XRPD of solid after evaporation ([3]; Toluene/2,2,4-Trimethylepentane solution): Form A | Precipitation? [3, 7]: No | Solid form after evaporation After AAC [3, 7]: Oil | Solid form after evaporation Before AAC [3, 7]: Oil | Precipitation? [3, 8]: No | Solid form after evaporation After AAC [3, 8]: Oil | Solid form after evaporation Before AAC [3, 8]: Oil | Precipitation? [3, 9]: No | Solid form after evaporation After AAC [3, 9]: Oil | Solid form after evaporation Before AAC [3, 9]: Oil | Precipitation? [3, 10]: No | Solid form after evaporation After AAC [3, 10]: Oil | Solid form after evaporation Before AAC [3, 10]: Oil | Precipitation? [3, 11]: No | Solid form after evaporation After AAC [3, 11]: Oil | Solid form after evaporation Before AAC [3, 11]: Oil | Precipitation? [3, 12]: No | Solid form after evaporation After AAC [3, 12]: Oil | Solid form after evaporation Before AAC [3, 12]: Oil | Precipitation? [3, 13]: No | Solid form after evaporation After AAC [3, 13]: Oil | Solid form after evaporation Before AAC [3, 13]: Oil | Precipitation? [3, 14]: No | Solid form after evaporation After AAC [3, 14]: Oil | Solid form after evaporation Before AAC [3, 14]: Oil | Precipitation? [3, 15]: No | Solid form after evaporation After AAC [3, 15]: Oil | Solid form after evaporation Before AAC [3, 15]: Oil | Precipitation? ([3]; solvent Toluene, anti-solvent 2,2,4-Trimethylpentane): No | Effect of accelerated aging conditions ([4]; AAC for 2 days): no effect on the solid form | Solid form by HT-XRPD Ambient After AAC [4, 8]: oily | Solid form by HT-XRPD Ambient Before AAC [4, 8]: oily | Solid form by HT-XRPD Vacuum [4, 8]: Oily | Solids after? [4, 8]: No | Solid form by HT-XRPD Vacuum [4, 16]: Oily | Solids after? [4, 16]: Yes | Solid form by HT-XRPD Vacuum [4, 17]: Oily | Solids after? [4, 17]: Yes | Solid form by HT-XRPD Vacuum [4, 18]: Oily | Solids after? [4, 18]: Yes | XRPD of crystalline precipitates ([4]; water as anti-solvent, except 1,4-dioxane, diethylene glycol, DMSO and diethanolamine): indicative of Form A | Hygroscopicity [5]: not hygroscopic | solubility temperature of CBD [6]: 29-30 °C
